How the values were obtained:
His-PYR1 with GST-HAB1 = target: T1, His-PYR1 with GST-HAB1 (Arabidopsis thaliana, UniProt O49686); assay: in vitro reconstitution, radiometric kinase assay; assay type: biochemical; details: HAB1 in place of ABI1
T1 sequence (O49686 1-191): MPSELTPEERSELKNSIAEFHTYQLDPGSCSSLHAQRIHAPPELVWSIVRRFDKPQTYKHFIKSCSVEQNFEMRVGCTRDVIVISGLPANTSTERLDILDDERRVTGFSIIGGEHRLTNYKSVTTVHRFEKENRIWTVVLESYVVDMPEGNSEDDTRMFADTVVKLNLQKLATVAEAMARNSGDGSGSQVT
T1 sequence (Q9CAJ0 1-511 partner): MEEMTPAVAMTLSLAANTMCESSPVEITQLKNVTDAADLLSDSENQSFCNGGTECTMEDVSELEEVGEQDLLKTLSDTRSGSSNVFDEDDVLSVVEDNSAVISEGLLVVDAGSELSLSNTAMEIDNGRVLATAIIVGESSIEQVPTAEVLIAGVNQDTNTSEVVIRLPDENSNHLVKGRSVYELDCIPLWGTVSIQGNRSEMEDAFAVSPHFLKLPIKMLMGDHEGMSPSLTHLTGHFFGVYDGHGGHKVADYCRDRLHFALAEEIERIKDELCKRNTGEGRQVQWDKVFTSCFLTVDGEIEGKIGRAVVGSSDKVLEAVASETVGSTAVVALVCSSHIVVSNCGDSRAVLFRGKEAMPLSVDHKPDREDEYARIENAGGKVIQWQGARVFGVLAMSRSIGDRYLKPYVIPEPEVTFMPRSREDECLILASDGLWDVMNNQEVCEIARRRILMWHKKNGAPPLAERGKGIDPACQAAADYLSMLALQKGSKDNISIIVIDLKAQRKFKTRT

His-PYR1 with GST-ABI1 = target: T2, His-PYR1 with GST-ABI1 (Arabidopsis thaliana, UniProt O49686); assay: in vitro reconstitution, radiometric kinase assay; assay type: biochemical
T2 sequence (O49686 1-191): T1 sequence (O49686 1-191)
T2 sequence (P49597 1-434 partner): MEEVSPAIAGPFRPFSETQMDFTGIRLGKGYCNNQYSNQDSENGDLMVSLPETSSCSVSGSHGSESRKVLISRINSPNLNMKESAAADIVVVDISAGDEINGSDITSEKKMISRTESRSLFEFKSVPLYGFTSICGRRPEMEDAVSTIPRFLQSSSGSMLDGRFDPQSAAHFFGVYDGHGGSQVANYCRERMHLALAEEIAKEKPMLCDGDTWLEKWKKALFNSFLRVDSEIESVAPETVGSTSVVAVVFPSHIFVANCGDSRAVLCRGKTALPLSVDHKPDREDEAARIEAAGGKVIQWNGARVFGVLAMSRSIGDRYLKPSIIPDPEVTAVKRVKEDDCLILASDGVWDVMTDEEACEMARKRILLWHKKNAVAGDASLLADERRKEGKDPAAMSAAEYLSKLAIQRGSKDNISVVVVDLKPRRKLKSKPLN

EC50 (His-PYR1 with GST-ABI1): 800 nM
SMILES: CC1=CC(=O)CC(C)(C)C1(O)/C=C/C(C)=C\C(=O)O (stereo in doubt) [(+)-ABA]
in vitro reconstitution, radiometric kinase assay (His-PYR1 with GST-HAB1): reconstitution was also achieved when the PP2C protein HAB1 was used instead of ABI1
